Literature values, collected in US8895061B2, “Compositions comprising carisoprodol and methods of use thereof” (Meda Pharmaceuticals Inc., priority 2007, dated 2014).

How the values were obtained:
[1] = for influence of polymorphic debrisoquine hydroxylation on elimination: poor metabolizers of debrisoquine, single oral doses
[2] = in vivo

SMILES	influence of polymorphic debrisoquine hydroxylation on elimination [1]	mean serum clearance of carisoprodol ([1]; poor metabolizers of mephenyloin compared with extensive metabolizers, single oral dose 700 mg carisoprodol)	onset of action [2]	mean serum clearance of meprobamate ([1]; poor metabolizers of mephenyloin compared with extensive metabolizers, single oral dose 400 mg meprobamate)
CCCC(C)(COC(N)=O)COC(=O)NC(C)C (centres unmarked) [carisoprodol, N-isopropyl-2-methyl-2-propyl-1,3-propanediol dicarbamate]	did not influence the elimination	four times lower	rapid	
CCCC(C)(COC(N)=O)COC(N)=O [meprobamate]	did not influence the elimination			did not differ between the two groups
